System: Lysozyme
Test: Inhibition of Maillard reaction: suppression of lysozyme dimer formation (lysozyme + fructose, SDS-PAGE)
Type: biochemical
Details: inhibition ratio of test compound to aminoguanidine (positive control); lysozyme 10 mg/ml, fructose 100 mM, 0.2M sodium phosphate pH 7.4, 37° C., 3 days; dimer amount by SDS-PAGE
Procedure: Lysozyme and fructose were dissolved in a buffer solution of 0.2M sodium phosphate (pH 7.4) to respectively give concentrations of 10 mg/ml and 100 mM. After incubating at 37° C. for 3 days, a definite amount of the mixture was taken out and electrophoresed with the use of SDS-PAGE. After the completion of the electrophoresis, the gel was stained with 0.2% Coomassie Brilliant Blue R-250 and the amount of the dimer thus formed was determined.
Each of the test compounds was added before the initiation of the incubation and the effect of suppressing the formation of the dimer was examined at various concentrations, whereby the IC50 value was obtained. As a positive control, aminoguanidine, which is a known glycation inhibitor, was employed and the inhibition ratio of the test compound to aminoguanidine (IC50 of aminoguanidine/IC50 of test compound) was calculated.

Compound | IC50 of aminoguanidine/IC50 of test compound
5-(N-ethoxycarbonylmethylcarbamoylmethyl)-2-isopropylidenehydrazonothiazolidin-4-one [Test compound 19] | 2.5
5-[N-(2-carboxy-4-methylphenyl)carbamoylmethyl]-2-isopropylidenehydrazonothiazolidin-4-one [Test compound 54] | 4.2
5-[N-(1-ethoxycarbonyl-3-methylbutyl)carbamoylmethyl]-2-isopropylidenehydrazonothiazolidin-4-one [Test compound 97] | 2.3
O=C1NC(=NN=C2CCCC2)NC1Cc1ccc(OCc2ccccc2)cc1 (stereo not shown) [Test compound 77, 2-Cyclopentylidenehydrazono-5-(4-benzyloxybenzyl)imidazolidin-4-one] | 2.2
5-[N-(5-carboxy-2-methylphenyl)carbamoylmethyl]-2-isopropylidenehydrazonothiazolidin-4-one [Test compound 91] | 1.6
CC(C)=NN=C1NC(=O)C(CC(=O)OCc2ccccc2)N1 (stereo not shown) [Test compound 44, 5-Benzyloxycarbonylmethyl-2-isopropylidenehydrazonoimidazolidin-4-one] | 5.2
CC(C)=NN=C1NC(=O)C(CC(=O)NCc2cccnc2)S1 (stereo not shown) [Test compound 66, 2-Isopropylidenehydrazono-5-[N-(3-pyridylmethyl)carbamoylmethyl]thiazolidin-4-one] | 4.6
CC(C)=NN=C1NC(=O)C(Cc2ccc(OCc3ccc(Cl)cc3)cc2)N1 (stereo not shown) [Test compound 6, 5-[4-(4-Chlorobenzyloxy)benzyl]-2-isopropylidenehydrazonoimidazolidin-4-one] | 8.3
CC(C)=NN=C1NC(=O)C(CC(=O)NC(C)c2ccccc2)N1 (stereo not shown) [Test compound 73, 2-Isopropylidenehydrazono-5-[N-(1-phenylethyl)carbamoylmethyl]imidazolidin-4-one] | 1.3
CC(C)=NN=C1NC(=O)C(C)N1 (stereo not shown) [Test compound 2, 2-Isopropylidenehydrazono-5-methylimidazolidin-4-one] | 2.8
CC(C)=NN=C1NC(=O)C(C(C)C)N1 (stereo not shown) [compound 79] | 1.5
4-[4-(4-Chlorobenzyloxy)phenyl]-2-isopropylidenehydrazinothiazole [Test compound 27] | 3.1
CC(C)=NN=C1NC(=O)C(CC(=O)N(C)c2ccccc2)S1 (stereo not shown) [Test compound 65, 2-Isopropylidenehydrazono-5-(N-methyl-N-phenylcarbamoylmethyl)thiazolidin-4-one] | 6.8
2-Isopropylidenehydrazono-5-[N-(1-naphthyl)carbamoylmethyl]thiazolidin-4-one [Test compound 59] | 0.8
CC(C)=NN=C1NC(=O)C(Cc2ccc([N+](=O)[O-])cc2)N1 (stereo not shown) [Test compound 33, 2-Isopropylidenehydrazono-5-(4-nitrobenzyl)imidazolidin-4-one] | 2.4
CC(C)=NN=C1NC(Cc2ccc(O)cc2)C(=O)N1Cc1ccccc1 (stereo not shown) [Test compound 9, 3-Benzyl-5-(4-hydroxybenzyl)-2-isopropylidenehydrazonoimidazolidin-4-one] | 1.3
2-Isopropylidenehydrazono-5-[N-(4-methylthiophenyl)carbamoylmethyl]thiazolidin-4-one [Test compound 55] | 5.3
CC(C)=NN=C1NC(=O)C(CC(=O)Nc2ccc(F)c(F)c2)S1 (stereo not shown) [Test compound 49, 5-[N-(3,4-difluorophenyl)carbamoylmethyl]-2-isopropylidenehydrazonothiazolidin-4-one] | 7.4
2-Isopropylidenehydrazino-4-(3-pyridyl)thiazole [Test compound 89] | 53

From patent US5677322A, “Maillard reaction inhibitor” (Otsuka Pharmaceutical Co., Ltd., priority 1993, dated 1997)
